According to publication PMC12040169 (PLOS Biology, 2025):

Assay: in vitro
Conditions: human, hela cells, % viability

Row | SMILES | viability at 28.5 h, 10 µM [%]
1 | CCc1c(S(=O)(=O)CCC(=O)OC)c2ccccc2[n+]([O-])c1C [CBK155469T] | 91.4
2 | CN(C)CC(=O)N1Cc2cccc3c2c(cn3S(=O)(=O)c2ccccc2)C1 [CBK155548T] | 94.5
3 | CCc1c(C)nc2ccccc2c1SCCOC(=O)Nc1ccc(OC)cc1 [CBK155554T] | 92.5
4 | COc1ccc(CNC(=O)N2CCN(c3ccccc3OC)CC2)cc1OC [CBK155609] | 89.2
5 | COc1ccccc1N1CCN(C(=O)NCCCN2CCCC2=O)CC1 [CBK155612] | 99.5
6 | COc1ccccc1N1CCN(C(=O)Nc2cccnc2)CC1 [CBK155617] | 98.7
7 | CCOC(=O)CCCNC(=O)N1CCN(c2ccccc2OC)CC1 [CBK155618] | 95.9
8 | CN1CCN(CCCNC(=O)N2CCN(Cc3ccccc3)CC2)CC1 [CBK155621] | 91.3
9 | O=C(NCCc1c[nH]c2ccccc12)N1CCN(Cc2ccccc2)CC1 [CBK155646] | 78.9
10 | O=C(NCC(c1ccccc1)c1ccccc1)N1CCN(Cc2ccccc2)CC1 [CBK155651] | 83.9
11 | O=C(NCCOc1ccccc1)N1CCN(Cc2ccccc2)CC1 [CBK155652] | 93.3
12 | CC(C)CCNC(=O)N1CCN(Cc2ccccc2)CC1 [CBK155657] | 87.2
13 | O=C(NC1CCc2ccccc21)N1CCN(Cc2ccccc2)CC1 (centres unmarked) [CBK155662] | 97
14 | O=C(Nc1cccnc1)N1CCN(Cc2ccccc2)CC1 [CBK155663] | 87.7
15 | CCOC(=O)CCCNC(=O)N1CCN(Cc2ccccc2)CC1 [CBK155664] | 89.2
16 | CSCCCNC(=O)N1CCN(CCN2CCOCC2)CC1 [CBK155669] | 90.9
17 | O=C(NCc1cccc(C(F)(F)F)c1)N1CCN(CCN2CCOCC2)CC1 [CBK155671] | 98.9
18 | Cc1cnc(CNC(=O)N2CCN(CCN3CCOCC3)CC2)cn1 [CBK155673] | 95.2
19 | O=C(O)c1cccc(NS(=O)(=O)c2ccc(Br)cc2F)c1 [CBK155691] | 95.6
20 | N#Cc1cccc(S(=O)(=O)Nc2cccc(C(=O)O)c2)c1 [CBK155699] | 95.7
21 | O=C(O)c1cccc(NS(=O)(=O)c2ccc3c(c2)CN(C(=O)C(F)(F)F)CC3)c1 [CBK155709] | 92.2
22 | O=C(O)c1cccc(NS(=O)(=O)c2cccc([N+](=O)[O-])c2)c1 [CBK155711] | 99.2
23 | O=C(O)c1cccc(NS(=O)(=O)CC(F)(F)F)c1 [CBK155712] | 94.3

Row | SMILES | viability at 28.5 h, 10 µM [%]
24 | Cc1cc(S(=O)(=O)Nc2ccc3[nH]ccc3c2)c(C)o1 [CBK155743] | 71.4
25 | O=S(=O)(/C=C/c1ccccc1)Nc1cccc2[nH]ccc12 [CBK155772] | 103
26 | COc1ccc2[nH]cc(CCNC(=O)N3CCN(CCN4CCOCC4)CC3)c2c1 [CBK155818] | 101
27 | O=C(Nc1ccccc1Cl)N1CCN(CCN2CCOCC2)CC1 [CBK155824] | 89.4
28 | CC(C)CNC(=O)N1CCN(CCN2CCOCC2)CC1 [CBK155826] | 88.1
29 | NC(=O)c1ccc(NC(=O)N2CCN(CCN3CCOCC3)CC2)cc1 [CBK155831] | 81.6
30 | CCN(CC)CCCNC(=O)N1CCN(CCN2CCOCC2)CC1 [CBK155837] | 90.9
31 | CSCCCNC(=O)N1CCNC(=O)C1 [CBK155848] | 98.3
32 | O=C1CN(C(=O)NCc2cccc(C(F)(F)F)c2)CCN1 [CBK155850] | 105
33 | O=C1CN(C(=O)NCc2cccc3ccccc23)CCN1 [CBK155852] | 102
34 | O=C1CN(C(=O)Nc2ccc3c(c2)OCCO3)CCN1 [CBK155860] | 92.9
35 | O=C1CN(C(=O)Nc2ccc(Cl)cc2)CCN1 [CBK155861] | 81.3
36 | O=C1CN(C(=O)Nc2ccccc2Cl)CCN1 [CBK155862] | 96.7
37 | O=C1CN(C(=O)NCc2ccc(F)cc2)CCN1 [CBK155869] | 88.2
38 | O=C1CN(C(=O)NCCOc2ccccc2)CCN1 [CBK155871] | 120
39 | CN1CCC(N2CCN(C(=O)NCc3ccc(Cl)c(Cl)c3)CC2)CC1 [CBK155883] | 92.5
40 | Cc1cnc(CNC(=O)N2CCN(C3CCN(C)CC3)CC2)cn1 [CBK155886] | 91.3
41 | CN1CCC(N2CCN(C(=O)NCCN3CCOCC3)CC2)CC1 [CBK155891] | 93.8
42 | COc1ccc(CCNC(=O)N2CCN(C3CCN(C)CC3)CC2)cc1OC [CBK155897] | 94.3
43 | CN1CCC(N2CCN(C(=O)Nc3ccc(Cl)cc3)CC2)CC1 [CBK155899] | 109
44 | CC(=O)Nc1cccc(NC(=O)N2CCN(C3CCN(C)CC3)CC2)c1 [CBK155901] | 85.1
45 | CC(C)COC(=O)N1CCC2(CC1)CC(=O)N(Cc1ccc(S(C)(=O)=O)cc1)C2=O [CBK155948] | 103
46 | CN(C)C(=O)c1ccc(-c2ccc(COC3CCN(C(=O)Cc4ccc(F)cc4)CC3)c(S(C)(=O)=O)c2)cc1 [CBK155963] | 96.1

Row | SMILES | viability at 28.5 h, 10 µM [%]
47 | CN(C)C(=O)c1ccc(-c2ccc(COC3CCN(C(=O)c4cc5ccccc5o4)CC3)c(S(C)(=O)=O)c2)cc1 [CBK155965] | 94.6
48 | CCN(CC)CCCNC(=O)N1CCCCC1CO (centres unmarked) [CBK155982] | 97.9
49 | O=C1CCCN1CCCNC(=O)N1CCCCC1CO (centres unmarked) [CBK155985] | 91.8
50 | CCOC(=O)N1CCC(NC(=O)N2CCCCC2CO)CC1 (centres unmarked) [CBK155991] | 106
51 | Cc1cc(CNC(=O)N(C)C2CCN(C)C2)no1 (centres unmarked) [CBK155992] | 103
52 | CN1CCN(CCCNC(=O)N(C)C2CCN(C)C2)CC1 (centres unmarked) [CBK155993] | 96.4
53 | CN1CCC(N(C)C(=O)NCC2COc3ccccc3O2)C1 (centres unmarked) [CBK155994] | 100
54 | CN1CCC(N(C)C(=O)NCc2ccc(Cl)c(Cl)c2)C1 (centres unmarked) [CBK155996] | 92.4
55 | CN1CCC(N(C)C(=O)NCc2cccc3ccccc23)C1 (centres unmarked) [CBK155999] | 89.2
56 | CN1CCC(N(C)C(=O)NC(c2ccccc2)c2ccccc2)C1 (centres unmarked) [CBK156000] | 96.4
57 | CN1CCC(N(C)C(=O)NCc2cccnc2)C1 (centres unmarked) [CBK156001] | 93.5
58 | CN1CCC(N(C)C(=O)Nc2ccc3[nH]ccc3c2)C1 (centres unmarked) [CBK156006] | 92.2
59 | CN1CCC(N(C)C(=O)Nc2ccc3c(c2)OCCO3)C1 (centres unmarked) [CBK156008] | 116
60 | CN1CCC(N(C)C(=O)NCc2c(Cl)cccc2Cl)C1 (centres unmarked) [CBK156014] | 99
61 | CN1CCC(N(C)C(=O)Nc2ccc(C(N)=O)cc2)C1 (centres unmarked) [CBK156015] | 93.8
62 | COc1ccc(CCNC(=O)N(C)C2CCN(C)C2)cc1 (centres unmarked) [CBK156019] | 100
63 | COc1cc(NC(=O)N(C)C2CCN(C)C2)cc(OC)c1OC (centres unmarked) [CBK156022] | 101
64 | Cc1ccc(NC(=O)N(C)C2CCN(C)C2)cc1 (centres unmarked) [CBK156023] | 103
65 | CN1CCC(N(C)C(=O)Nc2cccnc2)C1 (centres unmarked) [CBK156026] | 93.8
66 | CCOC(=O)N1CCC(NC(=O)N(C)C2CCN(C)C2)CC1 (centres unmarked) [CBK156027] | 102
67 | CN1CCN(CCCNC(=O)N2CCCC(CO)C2)CC1 (centres unmarked) [CBK156029] | 99.7
68 | O=C(NCC1COc2ccccc2O1)N1CCCC(CO)C1 (centres unmarked) [CBK156030] | 91.3
